Several values for one entry are separate records, joined by “and”; a condition that tells them apart may be missing. Equal values may be shown once. ± gives the uncertainty stated by the source.
Test: xn = mol fraction of the nth substance listed

CC(N)C(=O)[O-].CCCCn1cc[n+](C)c1 + O
Details	viscosity [mPa·s]
318.15 K, 100.3 kPa, x1 = 0.01781	1.114 ± 0.016

COC(C)=O + O
298.15 K, 101 kPa
Details	viscosity [mPa·s]
x1 = 0.007776	0.9505 ± 0.0044
x1 = 0.01059	0.9711 ± 0.0044
x1 = 0.01834	1.021 ± 0.0045
x1 = 0.02351	1.05 ± 0.0045
x1 = 0.0294	1.087 ± 0.0046
x1 = 0.03745	1.118 ± 0.0046
x1 = 0.03898	1.127 ± 0.0046
x1 = 0.04509	1.146 ± 0.0046
x1 = 0.7729	0.4311 ± 0.0015
x1 = 0.8213	0.4084 ± 0.0014
x1 = 0.8787	0.3879 ± 0.0013
x1 = 0.9325	0.372 ± 0.0013

N[C@@H](Cc1ccccc1)C(=O)O + O
viscosity
Details	298.15 K	303.15 K	308.15 K	313.15 K
100 kPa, x1 = 0.0004	0.8956 ± 0.036 mPa·s	0.8037 ± 0.032 mPa·s	0.7264 ± 0.029 mPa·s	–
100 kPa, x1 = 0.0007	0.8984 ± 0.036 mPa·s	0.8062 ± 0.033 mPa·s	0.7289 ± 0.029 mPa·s	0.6638 ± 0.027 mPa·s
100 kPa, x1 = 0.001	0.901 ± 0.036 mPa·s	0.8088 ± 0.033 mPa·s and 0.8113 ± 0.033 mPa·s	0.7315 ± 0.03 mPa·s and 0.7343 ± 0.03 mPa·s	0.6689 ± 0.027 mPa·s and 0.6664 ± 0.027 mPa·s
100 kPa, x1 = 0.0018	0.9067 ± 0.037 mPa·s	0.8139 ± 0.033 mPa·s	–	0.6713 ± 0.027 mPa·s
100 kPa, x1 = 0.0022	0.9093 ± 0.037 mPa·s	0.8169 ± 0.033 mPa·s	0.7395 ± 0.03 mPa·s	0.6738 ± 0.027 mPa·s
101 kPa, x1 = 0.00018	0.912 ± 0.011 mPa·s	0.803 ± 0.01 mPa·s	0.731 ± 0.009 mPa·s	0.658 ± 0.008 mPa·s
101 kPa, x1 = 0.000362	0.919 ± 0.011 mPa·s	0.809 ± 0.01 mPa·s	0.734 ± 0.009 mPa·s	–
101 kPa, x1 = 0.000725	0.927 ± 0.011 mPa·s	0.822 ± 0.01 mPa·s	0.745 ± 0.009 mPa·s	0.671 ± 0.008 mPa·s
101 kPa, x1 = 0.000909	0.931 ± 0.011 mPa·s	0.825 ± 0.01 mPa·s	0.749 ± 0.009 mPa·s	0.674 ± 0.008 mPa·s
101 kPa, x1 = 0.00109	0.949 ± 0.011 mPa·s	0.841 ± 0.01 mPa·s	–	0.688 ± 0.008 mPa·s
101 kPa, x1 = 0.00146	0.959 ± 0.012 mPa·s	0.849 ± 0.01 mPa·s	0.767 ± 0.009 mPa·s	0.692 ± 0.008 mPa·s

O.O.O=C(O)c1cc(S(=O)(=O)O)ccc1O + O
viscosity [mPa·s], 101 kPa
Details	x1 = 0.0004118	x1 = 0.0005979	x1 = 0.0007679	x1 = 0.001076
298.15 K	0.8998 ± 0.0057	0.9032 ± 0.0057	0.907 ± 0.0057	0.9134 ± 0.0057
308.15 K	0.7268 ± 0.0048	0.7304 ± 0.0048	0.7332 ± 0.0048	0.7386 ± 0.0048
318.15 K	0.597 ± 0.0042	0.6063 ± 0.0042	0.6087 ± 0.0042	0.6128 ± 0.0043

O=C([O-])[O-].[Na+].[Na+] + O
Details	viscosity
293.15 K, 101.33 kPa, x1 = 0.0032	1.085 ± 0.056 mPa·s
293.15 K, 101.33 kPa, x1 = 0.0051	1.152 ± 0.06 mPa·s
293.15 K, 101.33 kPa, x1 = 0.008	1.264 ± 0.066 mPa·s
293.15 K, 101.33 kPa, x1 = 0.0115	1.414 ± 0.073 mPa·s
293.15 K, 101.33 kPa, x1 = 0.0152	1.593 ± 0.083 mPa·s
293.15 K, 101.33 kPa, x1 = 0.0197	1.844 ± 0.095 mPa·s
293.15 K, 101.33 kPa, x1 = 0.0224	2.015 ± 0.11 mPa·s
293.15 K, 101.33 kPa, x1 = 0.0255	2.232 ± 0.12 mPa·s
293.15 K, 101.33 kPa, x1 = 0.0288	2.49 ± 0.13 mPa·s
293.65 K, 100 kPa, x1 = 0.00502	1.145 ± 0.012 mPa·s
298.15 K, 101 kPa, x1 = 0.0002	0.95 ± 0.02 mPa·s
298.15 K, 101 kPa, x1 = 0.001	0.95 ± 0.02 mPa·s
298.15 K, 101 kPa, x1 = 0.0027	0.99 ± 0.02 mPa·s
298.15 K, 101 kPa, x1 = 0.00397	1.01 ± 0.02 mPa·s
298.15 K, 101.33 kPa, x1 = 0.0032	0.96 ± 0.047 mPa·s
298.15 K, 101.33 kPa, x1 = 0.0051	1.018 ± 0.052 mPa·s
298.15 K, 101.33 kPa, x1 = 0.008	1.113 ± 0.057 mPa·s
298.15 K, 101.33 kPa, x1 = 0.0115	1.242 ± 0.064 mPa·s
298.15 K, 101.33 kPa, x1 = 0.0152	1.395 ± 0.072 mPa·s
298.15 K, 101.33 kPa, x1 = 0.0197	1.609 ± 0.082 mPa·s
298.15 K, 101.33 kPa, x1 = 0.0224	1.753 ± 0.091 mPa·s
298.15 K, 101.33 kPa, x1 = 0.0255	1.937 ± 0.1 mPa·s
298.15 K, 101.33 kPa, x1 = 0.0288	2.155 ± 0.12 mPa·s
301.15 K, 100 kPa, x1 = 0.0101	1.115 ± 0.012 mPa·s and 1.117 ± 0.012 mPa·s
303.15 K, 101 kPa, x1 = 0.002	0.836 ± 0.007 mPa·s
303.15 K, 101 kPa, x1 = 0.005	0.923 ± 0.008 mPa·s
303.15 K, 101 kPa, x1 = 0.009	1.026 ± 0.009 mPa·s
303.15 K, 101.33 kPa, x1 = 0.0032	0.864 ± 0.044 mPa·s
303.15 K, 101.33 kPa, x1 = 0.0051	0.915 ± 0.047 mPa·s
303.15 K, 101.33 kPa, x1 = 0.008	0.998 ± 0.051 mPa·s
303.15 K, 101.33 kPa, x1 = 0.0115	1.11 ± 0.057 mPa·s
303.15 K, 101.33 kPa, x1 = 0.0152	1.244 ± 0.064 mPa·s
303.15 K, 101.33 kPa, x1 = 0.0197	1.429 ± 0.072 mPa·s
303.15 K, 101.33 kPa, x1 = 0.0224	1.554 ± 0.08 mPa·s
303.15 K, 101.33 kPa, x1 = 0.0255	1.712 ± 0.088 mPa·s
303.15 K, 101.33 kPa, x1 = 0.0288	1.9 ± 0.096 mPa·s
306.65 K, 100 kPa, x1 = 0.0101	0.987 ± 0.011 mPa·s
308.15 K, 101 kPa, x1 = 0.002	0.763 ± 0.007 mPa·s
308.15 K, 101 kPa, x1 = 0.005	0.842 ± 0.008 mPa·s
308.15 K, 101 kPa, x1 = 0.009	0.931 ± 0.008 mPa·s
308.65 K, 100 kPa, x1 = 0.00502	0.825 ± 0.009 mPa·s
311.15 K, 100 kPa, x1 = 0.0168	1.1 ± 0.012 mPa·s
311.15 K, 100 kPa, x1 = 0.02299	1.331 ± 0.014 mPa·s and 1.332 ± 0.014 mPa·s
313.15 K, 101 kPa, x1 = 0.0002	0.7 ± 0.1 mPa·s
313.15 K, 101 kPa, x1 = 0.001	0.7 ± 0.1 mPa·s
313.15 K, 101 kPa, x1 = 0.002	0.694 ± 0.006 mPa·s
313.15 K, 101 kPa, x1 = 0.0027	0.72 ± 0.02 mPa·s
313.15 K, 101 kPa, x1 = 0.00397	0.74 ± 0.02 mPa·s
313.15 K, 101 kPa, x1 = 0.005	0.763 ± 0.007 mPa·s
313.15 K, 101 kPa, x1 = 0.009	0.846 ± 0.008 mPa·s

O=S(=O)([O-])c1ccc(O)cc1.[Na+] + O
viscosity [mPa·s], 101 kPa
Details	x1 = 9e-05	x1 = 0.00018	x1 = 0.0009	x1 = 0.0018	x1 = 0.00448	x1 = 0.00893	x1 = 0.0133	x1 = 0.0177
298.15 K	0.899 ± 0.009	0.9 ± 0.009	0.915 ± 0.009	0.931 ± 0.009	0.988 ± 0.01	1.085 ± 0.011	1.196 ± 0.01	1.321 ± 0.011
318.15 K	0.598 ± 0.006	0.599 ± 0.006	0.608 ± 0.006	0.62 ± 0.006	0.656 ± 0.006	0.715 ± 0.007	0.786 ± 0.007	0.86 ± 0.008

COC(C)=O + O=C1CCCO1
298.15 K, 101.33 kPa
Details	viscosity [mPa·s]
x1 = 0.0471	1.585 ± 0.012
x1 = 0.1055	1.467 ± 0.011
x1 = 0.1514	1.365 ± 0.011
x1 = 0.2015	1.254 ± 0.01
x1 = 0.2517	1.16 ± 0.009
x1 = 0.293	1.091 ± 0.009
x1 = 0.4005	0.902 ± 0.007
x1 = 0.4297	0.858 ± 0.007
x1 = 0.4981	0.746 ± 0.006
x1 = 0.5486	0.678 ± 0.006
x1 = 0.5907	0.632 ± 0.005
x1 = 0.701	0.52 ± 0.005
x1 = 0.745	0.485 ± 0.004
x1 = 0.7921	0.446 ± 0.004
x1 = 0.8471	0.416 ± 0.004
x1 = 0.9005	0.378 ± 0.004
x1 = 0.9509	0.369 ± 0.004

COCCOC + O=Cc1ccccc1
298.15 K, 101 kPa
Details	viscosity [mPa·s]
x1 = 0.1157	1.225 ± 0.03
x1 = 0.2274	1.082 ± 0.027
x1 = 0.3354	0.954 ± 0.024
x1 = 0.4398	0.841 ± 0.021
x1 = 0.5408	0.741 ± 0.019
x1 = 0.6385	0.655 ± 0.017
x1 = 0.7332	0.58 ± 0.016
x1 = 0.8249	0.515 ± 0.014
x1 = 0.9138	0.458 ± 0.013

Source: the CheMixHub viscosity set
